Each structure is given as a SMILES string. Where “and” joins values, the source holds several entries; their conditions need not be identical. Identical values can stand only once. Like-named read-outs stand apart in the source and are kept apart here. A value given as a limit tells only on which side of the number the result lay.

Data set [1] can be described thus: Solubility Assay #1, equilibrium solubility in pH 7.4 aqueous buffer. As to conditions: pH 7.4 phosphate buffer, thermodynamic from solid.
A further data set addresses ROCK2 (Homo sapiens (Human), UniProt O75116). The experiment in a line: Stability in varied buffers and temperatures, measured by ROCK2 inhibition. Format: physicochemical. Here is the method:
Stability in Varied Buffers and Temperatures. […] (room temperature), 37° C., 4° C., and −20° C. in water, 150 mM NaCl, pH 5 and 6 buffers, or buffers containing 150 mM NaCl. No visible precipitates were observed after storage.

Data set [2] can be described thus: Solubility Assay #3, qualitative solubility in borate and citrate buffers. Format: physicochemical. The following applies: borate and citrate buffers at a series of pH values.
The target in a further data set is ROCK1 (Homo sapiens (Human), UniProt Q13464). The experiment in a line: ROCK1 ADP-Glo kinase enzyme inhibition assay. As to conditions: read-out: ROCK1 IC50. Format: biochemical. How it is done:
We measured ROCK and PKA kinase enzyme activity inhibition by compounds using commercially available ROCK1 (Promega Corporation, cat #V9581), ROCK2 (Promega, cat #V4045), and PKA kinase (Promega, cat #V4247) ADP-Glo™ assay kits. ADP-Glo™ Kinase Assay is a luminescent ADP detection assay that provides a homogeneous method to measure kinase activity by quantifying the amount of ADP produced during a kinase reaction. The assay is performed in two steps. First, after the kinase reaction, an equal volume of ADP-Glo™ Reagent is added to terminate the kinase reaction and deplete the remaining ATP. Second, the Kinase Detection Reagent is added to simultaneously convert ADP to ATP and allow the newly synthesized ATP to be measured using a luciferase/luciferin reaction. The light generated is measured using a luminometer. A complete protocol is included with the kits and is also available at the Promega website. The assay is briefly described below. • 1. Diluted enzyme, substrate, ATP, and compounds (inhibitors) in Kinase Buffer (40 mM Tris, 7.5, 20 mM MgCl2, 0.1 mg/ml BSA, 50 μM DTT). • 2. Added 1 μl of inhibitor, 2 μl of enzyme and 2 μl of substrate/ATP mix to the wells of 384-well low volume nonbinding assay plate A series of three-fold dilution of inhibitor was prepared and assayed for each inhibitor. • 3. Incubated at room temperature for 60 minutes. • 4. Added 5 μl of ADP-Glo™ Reagent. • 5. Incubated at room temperature for 60 minutes. • 6. Added 10 μl of Kinase Detection Reagent • 7. Incubated at room temperature for 30 minutes.
Recorded luminescence (Integration time 1 second) using a plate-based luminometer.
Calculated Percent Enzyme Activity: First subtract the signal of the negative control (no enzyme and no inhibitor) from each sample's signal. Then use the mean relative light units (RLU) values for the 0% kinase activity (neither inhibitor nor enzyme) and the 100% kinase activity (no compound) to calculate the other percent enzyme activities remaining in the presence of the different dilutions of inhibitor. […]
On the technique in general: ADP-Glo turns the ADP formed in a reaction into a luminescent signal.

The subject of a further data set is HEK293 cells. The experiment in a line: CellTiter-Glo Luminescent Cell Viability Assay. As to conditions: HEK293 cells, 25, 2.5, or 0.25 μM, two days.
The subject of data set [3] is New Zealand White rabbits. Briefly: Sodium hyaluronate-induced acute ocular hypertension, IOP. Format: in vivo, rabbit. An excerpt: In all studies, male New Zealand White rabbits were acclimatized for one week before the study. Animals were given food and water ad libitum. Body weights of rabbits ranged from 2 to 3 kg. Animals were trained for the IOP measurement procedure during the acclimation period in order to reduce stress and obtaining more accurate measurements during the study. IOP measurements were taken using the Icare® TONOVET Plus tonometer. […] IOP readings are obtained only when the tonometer is held an appropriate distance and in the correct plane relative to the ocular surface. Green light appears when the orientation is correct, thereby minimizing operator errors. Measurements were performed at the same time of day by the same person using the same instrument. Sodium hyaluronate-induced acute ocular hypertension study. Sodium hyaluronate injection into the anterior chamber of rabbit eye creates acute ocular hypertensive status. […] Another group of four animals with elevated IOP received saline only in right eyes. The left eyes of both groups were instilled topically with 30 μl saline eye drop.

The conditions of data set [4]: water, thermodynamic from solid.
A further data set deals with AKT1 (Homo sapiens (Human), UniProt P31749). Briefly: AGC Kinase Selectivity Profiling (ADP-Glo). Format: biochemical. The following applies: 1 μM compound; AGC Panel; read-out: Percent enzyme activity inhibition, AKT1. An excerpt:
ROCK1 (also called ROCK I, ROKβ, Rho-kinase β, or p160ROCK) and ROCK2 ((also known as ROCK II, ROKα, or Rho kinase) belong to AGC family of serine/threonine kinases. The group of AGC kinases consists of 63 evolutionarily related serine/threonine protein kinases comprising PDK1, PKB/Akt, SGK, PKC, PRK/PKN, MSK, RSK, S6K, PKA, PKG, DMPK, MRCK, ROCK, NDR, LATS, CRIK, MAST, GRK, Sgk494, and YANK, while two other families, Aurora and PLK, are the most closely related to the group (Leroux et al., AGC kinases, mechanisms of regulation and innovative drug development, Semin Cancer Biol. 2018 February; 48:1-17).

In data set [5] the test system is New Zealand White rabbits. As to conditions: 0.1 ml, 20 mg/ml in saline. An excerpt:
The right eye that was not treated served as the control. […] The eyes of initial and confirmatory test animals were examined with slit lamp for ocular lesions. […] The animals were also observed for clinical signs of toxicity, morbidity and mortality.

Another data set deals with CHK1 (Homo sapiens (Human), UniProt O14757). Briefly: Kinase Selectivity Profiling General Panel (ADP-Glo). Format: biochemical. As to conditions: 1 μM compound, read-out: Percent enzyme activity inhibition, CHK1. Here is the method:
After this incubation, 5 μl of ADP-Glo™ reagent was added to 5 μl reaction and incubated for 40 minutes. Then, 10 μl of Kinase Detection Reagent added to all assay wells in the assay plate and incubated at room temperature for 30 minutes. […]

ROCK2, sequence (O75116 whole entry): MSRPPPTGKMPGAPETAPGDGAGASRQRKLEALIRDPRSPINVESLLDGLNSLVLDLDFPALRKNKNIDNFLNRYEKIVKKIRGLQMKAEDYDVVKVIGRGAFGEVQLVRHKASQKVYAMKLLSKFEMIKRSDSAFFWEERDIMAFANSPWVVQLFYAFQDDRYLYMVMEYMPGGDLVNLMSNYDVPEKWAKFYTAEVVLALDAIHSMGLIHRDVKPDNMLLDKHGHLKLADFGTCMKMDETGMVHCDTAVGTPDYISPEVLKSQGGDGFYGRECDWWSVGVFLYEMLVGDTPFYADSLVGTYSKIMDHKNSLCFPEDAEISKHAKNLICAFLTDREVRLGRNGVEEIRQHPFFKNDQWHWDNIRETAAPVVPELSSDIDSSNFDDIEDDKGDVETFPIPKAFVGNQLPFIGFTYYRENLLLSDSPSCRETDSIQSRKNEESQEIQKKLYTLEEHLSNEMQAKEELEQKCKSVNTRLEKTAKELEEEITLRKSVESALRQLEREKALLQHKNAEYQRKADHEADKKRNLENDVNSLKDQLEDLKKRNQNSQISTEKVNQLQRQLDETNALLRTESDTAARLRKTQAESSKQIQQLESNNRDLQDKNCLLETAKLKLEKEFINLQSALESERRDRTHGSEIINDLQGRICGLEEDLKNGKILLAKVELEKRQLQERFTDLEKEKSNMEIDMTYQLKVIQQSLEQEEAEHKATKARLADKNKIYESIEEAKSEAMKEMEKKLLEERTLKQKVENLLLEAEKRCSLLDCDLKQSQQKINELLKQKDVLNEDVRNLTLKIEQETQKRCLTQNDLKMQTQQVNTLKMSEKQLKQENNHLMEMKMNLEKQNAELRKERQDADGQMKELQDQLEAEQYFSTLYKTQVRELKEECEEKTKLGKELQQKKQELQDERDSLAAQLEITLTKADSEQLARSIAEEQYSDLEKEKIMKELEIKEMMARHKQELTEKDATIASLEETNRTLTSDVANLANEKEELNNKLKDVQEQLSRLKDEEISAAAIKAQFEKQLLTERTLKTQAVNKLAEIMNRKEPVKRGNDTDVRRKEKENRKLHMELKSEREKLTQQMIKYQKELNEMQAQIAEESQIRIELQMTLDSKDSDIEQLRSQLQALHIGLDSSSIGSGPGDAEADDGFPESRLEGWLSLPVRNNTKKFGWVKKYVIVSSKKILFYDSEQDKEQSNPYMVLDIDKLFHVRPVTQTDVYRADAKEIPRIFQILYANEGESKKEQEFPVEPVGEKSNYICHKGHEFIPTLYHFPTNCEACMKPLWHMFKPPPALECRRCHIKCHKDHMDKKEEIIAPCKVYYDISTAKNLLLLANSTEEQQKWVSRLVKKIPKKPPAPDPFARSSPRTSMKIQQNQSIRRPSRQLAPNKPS
CHK1, sequence (O14757 whole entry): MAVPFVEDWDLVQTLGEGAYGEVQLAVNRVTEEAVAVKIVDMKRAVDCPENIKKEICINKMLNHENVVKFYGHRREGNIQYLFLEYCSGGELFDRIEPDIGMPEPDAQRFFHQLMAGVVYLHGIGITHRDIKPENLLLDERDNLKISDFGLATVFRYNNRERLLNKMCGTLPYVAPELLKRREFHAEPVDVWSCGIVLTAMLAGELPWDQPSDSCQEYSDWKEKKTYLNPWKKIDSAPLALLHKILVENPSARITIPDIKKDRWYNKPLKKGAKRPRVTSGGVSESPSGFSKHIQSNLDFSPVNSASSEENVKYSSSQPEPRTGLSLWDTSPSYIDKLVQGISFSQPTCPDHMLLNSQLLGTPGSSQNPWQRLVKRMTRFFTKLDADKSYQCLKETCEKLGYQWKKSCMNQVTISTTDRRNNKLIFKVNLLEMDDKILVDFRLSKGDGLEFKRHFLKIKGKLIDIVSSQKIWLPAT
AKT1, sequence (P31749 whole entry): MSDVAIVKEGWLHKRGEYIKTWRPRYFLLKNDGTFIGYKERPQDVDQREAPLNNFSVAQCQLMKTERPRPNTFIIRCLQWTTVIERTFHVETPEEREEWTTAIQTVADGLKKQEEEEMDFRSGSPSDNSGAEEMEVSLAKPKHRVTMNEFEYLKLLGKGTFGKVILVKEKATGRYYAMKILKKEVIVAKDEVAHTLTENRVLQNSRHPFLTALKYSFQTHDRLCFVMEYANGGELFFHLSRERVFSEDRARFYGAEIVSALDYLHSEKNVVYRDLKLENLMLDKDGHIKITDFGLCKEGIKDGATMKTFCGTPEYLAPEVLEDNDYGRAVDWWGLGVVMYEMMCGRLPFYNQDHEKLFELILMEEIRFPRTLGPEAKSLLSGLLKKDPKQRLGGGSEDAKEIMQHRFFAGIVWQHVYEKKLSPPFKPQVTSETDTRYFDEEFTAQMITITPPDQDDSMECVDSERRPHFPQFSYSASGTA
ROCK1, sequence (Q13464 whole entry): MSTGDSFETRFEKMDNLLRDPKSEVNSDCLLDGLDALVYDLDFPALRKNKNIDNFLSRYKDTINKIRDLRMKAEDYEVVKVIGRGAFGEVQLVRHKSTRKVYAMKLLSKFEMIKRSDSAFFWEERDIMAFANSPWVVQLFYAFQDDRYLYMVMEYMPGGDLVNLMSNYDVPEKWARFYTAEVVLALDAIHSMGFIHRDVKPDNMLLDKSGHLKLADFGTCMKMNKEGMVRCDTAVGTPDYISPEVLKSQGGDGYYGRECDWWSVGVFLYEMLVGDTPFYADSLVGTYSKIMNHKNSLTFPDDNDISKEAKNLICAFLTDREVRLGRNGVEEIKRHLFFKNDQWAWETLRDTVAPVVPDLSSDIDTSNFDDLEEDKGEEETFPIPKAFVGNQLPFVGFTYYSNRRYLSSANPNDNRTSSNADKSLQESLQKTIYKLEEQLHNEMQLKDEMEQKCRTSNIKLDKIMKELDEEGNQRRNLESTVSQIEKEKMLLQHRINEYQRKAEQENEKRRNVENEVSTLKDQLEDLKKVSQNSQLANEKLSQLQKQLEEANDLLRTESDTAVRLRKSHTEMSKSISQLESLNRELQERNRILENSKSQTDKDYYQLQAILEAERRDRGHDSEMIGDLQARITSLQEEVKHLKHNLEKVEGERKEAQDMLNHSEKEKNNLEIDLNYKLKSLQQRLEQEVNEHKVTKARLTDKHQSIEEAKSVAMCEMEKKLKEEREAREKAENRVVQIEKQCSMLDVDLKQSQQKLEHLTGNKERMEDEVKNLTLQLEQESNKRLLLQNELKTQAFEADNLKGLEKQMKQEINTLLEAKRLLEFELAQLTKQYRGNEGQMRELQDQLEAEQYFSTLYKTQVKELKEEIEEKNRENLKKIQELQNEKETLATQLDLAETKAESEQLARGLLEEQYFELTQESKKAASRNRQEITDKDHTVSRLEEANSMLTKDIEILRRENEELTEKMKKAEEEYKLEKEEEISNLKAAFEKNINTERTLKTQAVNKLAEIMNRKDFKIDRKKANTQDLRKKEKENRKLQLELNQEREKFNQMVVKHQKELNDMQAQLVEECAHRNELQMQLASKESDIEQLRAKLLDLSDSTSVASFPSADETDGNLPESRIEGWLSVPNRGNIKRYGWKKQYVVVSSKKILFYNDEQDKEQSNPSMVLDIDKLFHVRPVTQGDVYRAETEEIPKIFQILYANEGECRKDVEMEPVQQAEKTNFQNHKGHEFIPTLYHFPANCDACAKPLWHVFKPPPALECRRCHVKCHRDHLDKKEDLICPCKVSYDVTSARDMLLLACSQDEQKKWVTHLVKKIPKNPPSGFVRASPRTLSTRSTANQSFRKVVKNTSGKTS
Protocol for HEK293 cells: We used CellTiter-Glo® Luminescent Cell Viability Assay (Promega, cat #G7573) to determine the number of viable cells in culture based on quantitation of the ATP present, which signals the presence of metabolically active cells. • 1. Prepared HEK293 suspension culture cells (ThermoFisher, cat #A14635) and added 50 μl cells in media (12,500 cells) to each well of a white, opaque-walled 96-well plate in triplicate. • 2. […] Incubated at 37° C. and 5% CO2 for two days. • 4. Added 100 μl of CellTiter-Glo® Reagent to each well and mix contents for 2 minutes on an orbital shaker to induce cell lysis. • 5. Recorded luminescence using a plate luminometer.

Consider `Cl.Cl.NCC(C(=O)Nc1ccc2cnccc2c1)c1ccc(B(O)O)cc1` (stereo not drawn) [Compound 10•2HCl], for which the solubility – broadly, the concentration that dissolves in the medium under given conditions – is 39.1 µM in data set [1]; > 100000 µg/mL and > 234000 µM in [4]. For the same compound, the “% ROCK2 inhibition at 20 nM” value at ROCK2 (25 mM Borate pH 5 (0.5 mg/ml), 15 days at 23° C.) was 31%; at ROCK2 (25 mM Borate, pH 5 (0.5 mg/ml), 15 days at −20° C.), 32%; on ROCK2 (25 mM Borate, pH 5, 150 mM NaCl (0.5 mg/ml), 15 days at 23° C.) it was 29%; at ROCK2 (150 mM NaCl (0.5 mg/ml), 0 days at 23° C.), 35%; on ROCK2 (150 mM NaCl (0.5 mg/ml), 15 days at 23° C.) it was 35%; at ROCK2 (150 mM NaCl (2 mg/ml), 120 days at 4° C.), 31%. The “% ROCK2 inhibition at 20 nM” value at ROCK2 (150 mM NaCl (2 mg/ml), 120 days at 37° C.) turned out to be 35%; at ROCK2 (Water (0.5 mg/ml), 15 days at 23° C.), 34%; at ROCK2 (Water (0.5 mg/ml), 15 days at −20° C.) it was 33%. For the same compound, at ROCK2 (150 mM NaCl, 37° C. and 4° C.), the Stability in solution result was “stable for 4 months”. The “pH at which precipitation occurs” value in data set [2] is roughly 8.5. Further, on ROCK1, the IC50 (usually the point on the concentration scale where inhibition reaches its midpoint) is 54 nM. Further, in the data set with HEK293 cells, the “Cell viability (ATP amount)” value is reported as “same amount of ATP as cells without inhibitor”. For the same compound, the “Duration of IOP effect” value in [3] (experiment 1, 1 mg/ml eye drop) was found to be 6 h. Also, the “Effect on IOP compared to saline only group” value in data set [3] (experiment 1, 30 μl eye drop in saline (1 mg/ml, 2.34 mM) two hours after hyaluronate injection) is given as “decreased IOP significantly within 1 hour after application”. In data set [3] (experiment 2, compound 10.2HCl 1 mg/ml (2.34 mM), Netarsudil.2HCl 0.25 mg/ml (0.47 mM), 30 μL eye drop), the “Effect on IOP” value is “reduced IOP significantly within 1 hour after eye drop application”. Moreover, the inhibition – broadly, how much of the control response was suppressed – at 1 µM on AKT1 amounted to 52%; at CHK1 it was 21%. In [5], the “clinical signs of toxicity, morbidity and mortality” value is “No treatment-related adverse effects were noticed”.

The record behind these values is patent publication US12479866B2, “Boron-containing rho kinase inhibitors” (Percipiad, Inc., priority 2019, dated 2025).
